The values below come from publication PMC9498296, “Inhibitory Activity of Quaternary Isoquinoline Alkaloids on Soluble Epoxide Hydrolase” (Current Issues in Molecular Biology, 2022).

Assay [1] deals with T1, soluble epoxide hydrolase (sEH) (Homo sapiens, UniProt P34913).
T1 construct: purchased Cayman Chemical (Ann Arbor, MI, USA) 10011669
T1 sequence (P34913 1-555): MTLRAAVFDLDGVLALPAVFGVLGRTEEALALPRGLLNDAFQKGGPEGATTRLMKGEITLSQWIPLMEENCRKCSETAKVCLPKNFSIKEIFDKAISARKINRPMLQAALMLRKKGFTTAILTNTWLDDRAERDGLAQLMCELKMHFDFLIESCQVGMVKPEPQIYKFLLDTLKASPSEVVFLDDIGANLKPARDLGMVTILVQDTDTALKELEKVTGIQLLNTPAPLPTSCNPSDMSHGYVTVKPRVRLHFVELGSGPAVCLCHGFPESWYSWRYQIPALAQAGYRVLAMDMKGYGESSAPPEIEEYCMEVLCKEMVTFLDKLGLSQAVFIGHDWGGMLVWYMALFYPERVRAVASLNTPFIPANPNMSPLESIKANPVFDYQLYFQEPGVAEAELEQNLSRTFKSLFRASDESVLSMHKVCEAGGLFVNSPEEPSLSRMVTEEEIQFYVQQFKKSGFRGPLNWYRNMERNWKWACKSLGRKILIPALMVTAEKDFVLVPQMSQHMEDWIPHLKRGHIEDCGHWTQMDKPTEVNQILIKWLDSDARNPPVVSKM
Description: sEH enzymatic assay (fluorometric, PHOME substrate). To be noted: 37 °C, pH 7.0, tested three times, read-out: Inhibition of Compounds on sEH IC50. It counts as biochemical. The protocol:
The sEH assay was performed as described previously, with minor modifications. To determine inhibitory activity, 130 μL of the sEH in 25 mM bis-Tris-HCl buffer (pH 7.0) containing 0.1% BSA was added to either 20 μL of inhibitor dissolved in MeOH. Next, 20 μL of PHOME was mixed to each mixture, which was then reacted at 37 °C for sEH hydrolysis. Product formation was monitored fluorometrically at 330 nm excitation and 465 nm emission for approximately 60 min.
sEH inhibition activity was calculated using sEH Inhibition rate (%) = [(ΔC − ΔI)/ΔC] × 100(1) where ΔC and ΔI are the difference of the solvent and compound intensities, respectively, after about one hour and y = y0 + (a × x/b + x)(2) where y0 is the minimum value along the y-axis, a is the difference between the maximum and minimum values, and b is the x value at 50 percent of the “a” value.

The target of assay [2] is T1, soluble epoxide hydrolase (sEH). Description: Enzyme kinetics of sEH inhibition (Lineweaver–Burk and Dixon plots). It counts as biochemical. To be noted: for Binding Mode: Lineweaver–Burk plots, PHOME substrate; for Ki: Table 1, Dixon plots, read-out: Binding Mode (ki, M): ki. The protocol: Additionally, an enzyme kinetic study was performed to identify how the three compounds bound to this enzyme. The initial velocity (v0) of inhibitor was determined as the rate of enzymatic conversion from substrate to product depending on the concentration of inhibitor at the start of the enzymatic reaction. The results were visualized using classic double-reciprocal Lineweaver–Burk plots. Figure 2B–D indicates one 1/Km and four 1/Vmax values for the three inhibitors, which inhibited the catalytic reaction of sEH with PHOME in a noncompetitive manner.

Each structure is given as a SMILES string.

For `COc1cc2c(cc1OC)-c1cc3ccc(OC)c(OC)c3c[n+]1CC2` [Compound 1, palmatine], in assay [1], the IC50 (in general, the concentration that gives 50% inhibition) is 29.6 ± 0.5 µM. Moreover, in assay [2], the “Binding Mode” value is listed as “Non-competitive” and the Ki – broadly, a measure of affinity in units of concentration, obtained from inhibition or displacement – was 2.69e-05 M.
For the compound `COc1ccc2cc3[n+](cc2c1OC)CCc1cc2c(cc1-3)OCO2` [Compound 2, berberine], the IC50 in assay [1] was 33.4 ± 0.8 µM. Besides, in assay [2], the “Binding Mode” value was “Non-competitive” and the Ki was determined as 4.68e-05 M.
On the same counts, the results for `COc1cc2c(cc1O)CC[n+]1cc3c(OC)c(OC)ccc3cc1-2` [Compound 3, jatrorrhizine] are 27.3 ± 0.4 µM, “Non-competitive” and 4.45e-05 M.
